Measurements taken from patent publication US20230407304A1, “USE OF MICRORNA INHIBITION TO PREVENT AND TREAT OSTEOARTHRITIS AND OTHER INFLAMMATORY DISEASES” (VIRGINIA COMMONWEALTH UNIVERSITY, priority 2020, published 2023).
Entries after “also recorded” stand apart in the source; their conditions may differ.

Assays:
[1] = system: rat articular chondrocytes (rArCs); assay: WNT/β-catenin agonist or antagonist treatment of rArCs with or without TNF-α; type: cell-based
[2] = system: rat articular chondrocytes (rArCs); assay: WNT/β-catenin agonist or antagonist treatment of rArCs with or without IL-1β; type: cell-based
[3] = system: rat articular chondrocytes (rArCs); assay: Stimulation of rArCs with IL-1β or TNF-α (total DNA, MMP-13, PGE2); type: cell-based; details: 10 ng/mL IL-1β or 5 and 10 ng/mL TNF-α, 24 hours, vs control
Protocol: FIGS. […] (FIG. 6A) Total DNA was measured from the cell monolayer and (FIG. 6B) MMP-13, and (FIG. 6C) PGE2 proteins were measured from the conditioned media. Groups not sharing a letter (D, C, B or A over bar) are statistically significant using an alpha=0.05.
Rat articular chondrocytes (rArCs) were isolated using a previously established protocol (see Scott, supra). Briefly, rArCs were isolated from femoral condyles and tibial plateaus from 100-125 g male Sprague Dawley rats. Cartilage was sterilely sliced from the articular surfaces using a surgical blade and placed in Dulbecco's modification of Eagle's medium with 1 g/L glucose, 50 U/mL penicillin and streptomycin (pen-strep) (DMEM). […]
rArCs were plated at a seeding density of 15,000 cells/cm^2 and fed with DMEM supplemented with 10% FBS and 50 U/mL pen-strep. […] MMP-13 (ANASpec, Fremont, CA) and PGE2 (R&D Systems) were measured in the conditioned media by a microplate reader at ex/em 490 nm/520 nm, and 450 nm absorbance, respectively, in accordance with the manufacturer's directions. […] Cell layers were thawed, and mechanically lysed by ultrasonication (40V, 10s/well) (VCX-120; Vibra-cell, Newtown, CT) and DNA was measured using QuantiFluor dsDNE system kit (Promega, Madson, WI) and quantified on a fluorescence plate reader at ex/em 504 nm/531 nm. […]

[4] = system: rat articular chondrocytes (rArCs); assay: miR mimic or inhibitor transfection of rArCs with or without TNF-α stimulation; type: cell-based
Protocol: FIGS. 7A-7F show assessment of miR-122 and miR-451 transfection or inhibition on TNF-α stimulated rat articular chondrocytes. rArCs were transfected at 60% confluence with miR-122, miR-451, miR-122-inhibitor (122-Inh), miR-451 inhibitor (451-Inh), or an empty vehicle (Lipo) for 24 hours followed by 24 hours with or without 10 ng/mL TNF-α stimulation. (FIG. 7A, 7D) Total DNA was measured from the cell monolayer and (FIG. 7B, 7E) MMP-13 and (FIG. 7C, 7F) PGE2 proteins were measured from the conditioned media. Groups not sharing a letter (A, B or C over bar) are statistically significant using an alpha=0.05.
Rat articular chondrocytes (rArCs) were isolated using a previously established protocol (see Scott, supra). Briefly, rArCs were isolated from femoral condyles and tibial plateaus from 100-125 g male Sprague Dawley rats. Cartilage was sterilely sliced from the articular surfaces using a surgical blade and placed in Dulbecco's modification of Eagle's medium with 1 g/L glucose, 50 U/mL penicillin and streptomycin (pen-strep) (DMEM). After removing DMEM, cartilage was incubated with 0.05% trypsin (20 mins, 37° C.), rinsed with DMEM (50 U/mL pen-strep, 20 mins, 37° C.), and then digested with sterile-filtered 0.03% collagenase type II solution (Worthington Biochemical, Lakewood, NJ) in Hank's balanced salt solution (16 hrs, 37° C.). Digestion was quenched with an equal volume of DMEM containing 10% fetal bovine serum (FBS) and 50 U/mL pen-strep, strained through a 40 μm strainer (Greiner Bio-one, North Carolina), spun down at 500×g for 10 mins and plated at a seeding density of 15,000 cells/cm^2. These cells are at passage 0. All experiments used cells at passage 1.
rArCs were plated at a seeding density of 15,000 cells/cm^2 and fed with DMEM supplemented with 10% FBS and 50 U/mL pen-strep. Media were changed 24 hours after plating and then every 48 hours. After treatments described below, conditioned media were collected, centrifuged at 1,000×g for 10 mins to remove cellular debris, aliquoted, and stored at −80° C. until assayed. Cell monolayers were rinsed twice with 1 mL of 1×PBS, lysed in 500 μL of 0.05% Triton X-100, and frozen for later DNA analysis. MMP-13 (ANASpec, Fremont, CA) and PGE2 (R&D Systems) were measured in the conditioned media by a microplate reader at ex/em 490 nm/520 nm, and 450 nm absorbance, respectively, in accordance with the manufacturer's directions. Data were normalized to the DNA content of the cell monolayer. Cell layers were thawed, and mechanically lysed by ultrasonication (40V, 10s/well) (VCX-120; Vibra-cell, Newtown, CT) and DNA was measured using QuantiFluor dsDNE system kit (Promega, Madson, WI) and quantified on a fluorescence plate reader at ex/em 504 nm/531 nm. […]

[5] = system: articular chondrocytes; assay: miR-122 / miR-451 transfection of articular chondrocytes in presence and absence of IL-1β; type: cell-based, rat
Excerpt: The following Examples with these microRNAs established their functions in articular chondrocytes in the presence and absence of the inflammatory cytokine IL-1β. Since IL-1β signaling is a major contributor of OA, a well-established model of creating an osteoarthritic phenotype in vitro is to stimulate cell cultures with this cytokine. This study first established that both these microRNAs were elevated in OA in the bilateral ACLT model.
The miR-451 miR (SEQ ID NO:10) was originally chosen as a control miR but it had surprising and very specific functions. […] A series of transfections and inhibition experiments with these microRNAs confirmed that these changes were due to the microRNAs themselves.

[6] = system: WNT/β-catenin; details: literature; cited from earlier work
[7] = miR transfection of articular chondrocytes
[8] = miR transfection plus IL-1β stimulation

[Cl-].[Li+] [LiCl, lithium chloride]
total DNA [1]: decreased total DNA to similar levels; also recorded: marginally decreased this
total DNA [2]: decreased total DNA

IL-1β: inflammatory cytokine (Peprotech) used to stimulate chondrocyte cultures
total DNA of cell monolayer [3]: no differences in DNA

miR-122: mirVana miRNA mimic rno-miR-122-5p; UGGAGUGUGACAAUGGUGUUUG (UGGAGUGUGACAAUGGUGUUUG; listed as RNA, chemistry not given here)
change of total DNA on TNF-α treatment in transfected cells ([4]; 14.5 nM mimic 24 hours, then 10 ng/mL TNF-α 24 hours): modestly decreased total DNA
total DNA after mimic transfection ([4]; 14.5 nM mimic, 24 hours, vs Lipo control): increased total DNA
proliferation [5, 7]: stimulated proliferation
total DNA [5, 7]: increased total DNA
IL-1β-stimulated MMP-13 [5, 8]: able to prevent the IL-1β-stimulated increase
IL-1β-stimulated PGE2 [5, 8]: able to prevent the IL-1β-stimulated increase
growth factor VEGF [5, 8]: prevented IL-1β-stimulated increase
inflammatory mediators, cytokines, chemokines (IL-1α, IL-2, IL-4, IL-6, GM-CSF, MIP-1A; RANTES for miR-122) [5, 8]: prevented IL-1β-stimulated increase

PKF115-584
IL-1β and TNF-α induced cartilage degradation [6]: block IL-1β and TNF-α induced cartilage degradation

TNF-α
total DNA of cell monolayer [3]: no differences in DNA

Cn1ncnc2c(=O)n(C)c(=O)nc1-2 [PKF, PKF-118-310]
total DNA [2]: drastically decreased total DNA
IL-1β and TNF-α induced cartilage degradation [6]: block IL-1β and TNF-α induced cartilage degradation
